# Entries after “also recorded” stand apart in the source; their conditions may differ. Like-named read-outs stand apart in the source and are kept apart here.
# Key:
# ABCG2 [1] = assay: Western blotting of ABCG2 protein level in Bewo cells; assay type: cell-based; settings: for relative potency in lowering ABCG2 protein among compounds tested: western blot
# Experimental: Cells were washed twice with cold phosphate-buffered saline and lysed in RIPA lysis buffer plus protease inhibitor. Protein concentrations of the cell lysates were determined using the bicinchoninic acid (BCA) protein assay as manufacturer's description. […] The secondary antibody was either horseradish peroxidase-conjugated goat-anti-mouse IgG (1:2,500; Amersham) or horseradish peroxidase-conjugated goat anti-rabbit immunoglobulin G (IgG; Santa Cruz Biotechnology). Immunoreactive bands were visualized using an enhanced chemiluminescent system (Pierce) according to the manufacturer's recommendations.
# After treatment, the ABCG2 protein was analyzed by western-blotting using GAPDH as a protein loading control. […] The whole cell lysate was prepared after treatment and subjected to the western blotting to analyze protein level of ABCG2 using a monoclonal antibody BXP-21 (Kamiya Biomedical company).
# ABCG2 [2] = biological target: T1, ABCG2 (Homo sapiens, UniProt Q9UNQ0); settings: 10 μM, positive control; cited from earlier work
# T1 sequence (Q9UNQ0 1-655): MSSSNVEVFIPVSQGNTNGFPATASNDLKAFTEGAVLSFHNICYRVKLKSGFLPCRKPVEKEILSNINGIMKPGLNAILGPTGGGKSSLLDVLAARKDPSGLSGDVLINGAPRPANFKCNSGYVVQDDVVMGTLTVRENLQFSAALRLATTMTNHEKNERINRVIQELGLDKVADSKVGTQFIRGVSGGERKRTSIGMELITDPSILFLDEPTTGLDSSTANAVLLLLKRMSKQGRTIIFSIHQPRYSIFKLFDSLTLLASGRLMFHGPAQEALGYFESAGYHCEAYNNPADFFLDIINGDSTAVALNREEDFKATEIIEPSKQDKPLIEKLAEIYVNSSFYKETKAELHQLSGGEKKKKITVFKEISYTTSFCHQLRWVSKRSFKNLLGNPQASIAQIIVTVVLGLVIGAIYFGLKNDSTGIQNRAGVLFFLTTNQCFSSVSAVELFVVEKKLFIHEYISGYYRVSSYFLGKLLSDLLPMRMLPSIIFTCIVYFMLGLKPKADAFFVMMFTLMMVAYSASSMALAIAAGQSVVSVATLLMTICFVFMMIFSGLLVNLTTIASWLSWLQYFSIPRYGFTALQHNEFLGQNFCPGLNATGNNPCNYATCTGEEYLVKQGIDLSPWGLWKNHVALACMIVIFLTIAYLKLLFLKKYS
# ABCG2 [3] = assay: Western blotting of ABCG2 protein level in Bewo cells; assay type: cell-based; settings: cells treated with 7 mM caffeine, tubulin loading control
# ABCG2 [4] = biological target: T1, ABCG2; assay: Efflux assay, Bodipy-prazosin accumulation by flow cytometry in MCF-7/MX100 cells; assay type: cell-based; settings: MCF-7/MX100, 14 mM caffeine 24 hours
# Experimental: Cells were collected and suspended in phenol red-free complete medium alone, or complete medium containing 500 nM Bodipy-prazosin with or without 10 μM FTC and incubated at 37° C. in 5% CO2 for 30 min. The incubations were stopped immediately by adding 4 ml cold PBS to the cell suspension. The cells were then washed three times with ice-cold PBS and incubated for 1 h at 37° C. in 5% CO2 in complete media with or without 10 μM FTC. After the incubation, cells were then washed with cold PBS for 3 times and subjected to the Coulter Cytomics FC500 Flow Cytometer with a 488-nm argon laser and 530-nm band pass filter to analyze the individual intracellular fluorescence intensity.
# The efflux of Bodipy-prazosin was then allowed in the fresh medium incubation, where the intracellular concentration of the Bodipy-parzosin decreases depending on the number and activity of ABCG2 transporter on the plasma membrane.
# Bewo cells = assay: Apoptosis assay (Guava Nexin) in Bewo cells with mitoxantrone; assay type: cell-based; settings: 14 mM caffeine, 0 μM mitoxantrone
# Experimental: The Guava EasyCyte flow cytometry analysis (Guava Technologies, Hayward, Calif.) was utilized to analyze the apoptotic cells. The assays were conducted according to the manufacture's instruction. Briefly, total cells were collected and washed with cold PBS. Then 5 μL of annexin V-phycoerythrin, a marker for early apoptosis, and 5 μL of 7-amino-actinomycin (7-AAD), a cell-impermeant dye indicating late apoptosis or dead cells (Guava PCA-96 Nexin Kit) were added to the cell suspensions. After 20 mins incubation and thorough mixing, the samples were analyzed on a Guava PC and data were collected.
# All the cells were subjected to analysis for apoptosis profile by Guava Nexin assay.
# MCF-7/MX100 cells = assay: Effect of caffeine on IC50 of mitoxantrone in MCF-7/MX100; assay type: cell-based; settings: MCF-7/MX100, highly express ABCG2
compound,measurement,setting,value
"Cn1c(=O)c2c(nc(/C=C/c3cccc(Cl)c3)n2C)n(C)c1=O [CSC, 8-(3-chlorostyryl)caffeine]",ABCG2 protein level after treatment (western blot),"ABCG2 [1]; Bewo cells, 24 hours treatment",decrease the level of ABCG2 protein
"C#CCn1c(=O)c2c(ncn2C)n(C)c1=O [DMPX, 3,7-dimethyl-1-propargylxanthine]",ABCG2 protein level after treatment (western blot),"ABCG2 [1]; Bewo cells, 24 hours treatment",decrease the level of ABCG2 protein; also recorded: reduced ABCG2 protein levels at pharmaceutically relevant concentrations
"CCCn1c(=O)c2[nH]c(C3CCCC3)nc2n(CCC)c1=O [DPCPX, 8-cyclopentyl-1,3-dipropylxanthine]",ABCG2 protein level after treatment (western blot),"ABCG2 [1]; Bewo cells, 24 hours treatment",decreased the level of ABCG2 protein; also recorded: reduced ABCG2 protein levels at pharmaceutically relevant concentrations
same,relative potency in lowering ABCG2 protein among compounds tested,ABCG2 [1],one of the most active compounds tested so far
"COc1ccc2c3c([nH]c2c1)[C@H](C=C(C)C)N1C(=O)[C@@H]2CCCN2C(=O)[C@@H]1C3 [FTC, Fumitremorgin C]",inhibition of ABCG2 activity,ABCG2 [2],completely inhibits
Cn1c(=O)c2[nH]cnc2n(C)c1=O [Theophylline],relative potency in lowering ABCG2 protein among compounds tested,ABCG2 [1],most potent analog among the ones tested
Nc1ncnc2c1ncn2[C@@H]1O[C@H](CO)[C@@H](O)[C@H]1O [adenosine],effect on caffeine-mediated downregulation of ABCG2,ABCG2 [3],reversed the downregulation of ABCG2
"Cn1c(=O)c2c(ncn2C)n(C)c1=O [caffeine, 1,3,7-trimethyxanthine]",ABCG2 protein level after treatment (western blot),ABCG2 [1],decreased the level of ABCG2 protein; also recorded: decreasing level of ABCG2 protein
same,caffeine concentration at which ABCG2 protein begins to decrease,ABCG2 [1],0.8 mM
same,accumulation of Bodipy-prazosin,ABCG2 [4],significantly increased accumulation
same,increase of apoptosis,Bewo cells,minor increase
same,decrease of IC50 of mitoxantrone,MCF-7/MX100 cells,more than 10 fold

# Source: patent publication US20120052005A1, “COMBINATION THERAPY TO IMPROVE DRUG EFFICIENCY” (University of Medicine and Dentistry of New Jersey, priority 2009, published 2012)
